Experimental findings from patent publication US10752900B2, “Oligonucleotides for modulating gene expression and uses thereof” (BIOGENERA S.P.A., priority 2012, dated 2020) are described below.

The test system of one series is MYCN gene. Briefly: QT-PCR, MYCN mRNA in Kelly cells. It is filed as cell-based, human. Set-up: mRNA Inhibition (%)(Kelly): concentration or dose not given beside the values. The conditions noted are these: for mRNA inhibition (%): Table 1, PNA 1 μM, RNA extracted after 24 hours; for Kelly % mRNA: Table 6. Here is the method:
For the purpose of assessing the ability of the oligonucleotides of the present invention to modulate the expression of the target genes, their ability to reduce the quantity of messenger RNA was analyzed using the Real-Time PCR technique.
For this purpose, use was made of 24-well plates, which were seeded with 5.0×10^4 cells with 0.3 ml of OPTI-MEM (GIBCO BRL) medium, 4% FBS and 2 mM L-glutammine (experiments in triplicate) per well.
The cells were incubated for 24 hours at 37° C., in an atmosphere containing 5% CO2 to permit adherence to the base of the wells.
Each oligonucleotide analyzed, except for the PNA oligonucleotides, was incubated beforehand with 2 μl of Lipofectamine 2000 (Invitrogen), with 0.3 mL of serum-free OPTI-MEM (GIBCO BRL) medium.
For each well, the oligonucleotides were analyzed at the following final concentrations: • the antisense oligonucleotides siRNA and siRNA gapmer (i.e. the oligonucleotides containing one or more monomers of chemically modified nucleic acids at the 3′ or 5′ end, while in the central portion they have monomers of nucleic acids that have not been modified or have been modified at the level of the phosphodiester bond as a phosphorothioate bond) were used at 200 nM; • the antisense oligonucleotides containing phosphorothioate DNA monomers, the RNA antigene oligonucleotides (agRNA) and the oligonucleotides containing DNA monomers and LNA monomers were used at 10 μM; • the morpholino oligonucleotides were used at a concentration of 1 μM, and • the PNA oligonucleotides were administered at a concentration of 1 μM.
The cells were treated with the oligonucleotides, adding FBS up to 4% 6 hours after administration of the same. After 24 hours the total RNA was extracted from each well and purified using the RNeasy Mini Kit (QIAGEN).
Assays were performed on 8 cell lines obtained from 5 different human tumours which are correlated with MYCN expression, i.e.: • as a neuroblastoma model use was made of the cell lines Kelly, IMR-32 (where the MYCN gene is amplified and superexpressed) and SKNBE2c and LAN1 (where the MYCN gene is amplified and superexpressed and the p53 gene is mutated); • as a rabdomiosarcoma model use was made of the cell line RH30, where the MYCN gene is amplified and superexpressed; • as a Wilms' tumour model use was made of the cell line WiT49, where the MYCN gene is amplified and superexpressed; • as a retinoblastoma model use was made of the cell line Y79, where the MYCN gene is amplified and superexpressed; and • as a model of small cell lung cancer use was made of the cell line H69 where the MYCN gene is amplified and superexpressed.
As a control, use was made of the same cell lines as listed above treated with sterile water instead of oligonucleotides. Each RNA sample was quantified (in duplicate) using a NanoDrop ND-1000 spectrophotometer (NanoDrop Technologies). The first strand of cDNA was produced using the cDNA Synthesis Kit for RT-PCR (Roche). For the cDNA synthesis reaction a total of 1 μg of RNA was used. For the real-time PCR, 10 ng of cDNA in a final volume of 20 μl was used with SYBR Green Master Mix 2× (Applied Biosystems) (3 identical experiments were conducted in triplicate). Two housekeeping genes were used as positive controls: GAPDH and beta-actin (ACTB).
The conditions of the QT-PCR reaction were: 10 min at 95° C., 20 sec at 95° C., and 30 sec at 60° C., for 50 cycles.
As far as the PNA oligonucleotides are concerned, the results regarding their ability to inhibit the transcription of the MYCN gene and proliferation of Kelly cells are shown in Table 1.
The oligonucleotides were tested in vitro (at a concentration of 2.5 μM) to determine their ability to inhibit the transcription of the gene they are directed against by measuring the levels of the gene messenger in cellular models in which the gene of interest is overexpressed. The methods used are the ones described in example 1. […]

For another series, the system named is NIH-3T3. Briefly: Cellular proliferation, NIH-3T3 fibroblastoid-type cells. It is filed as cell-based. The conditions noted are these: Table 1; cells that do not express MYCN. Here is the method:
Cell viability was assessed by means of an ATP-Lite assay (Luminescence ATP Detection Assay System, PerkinElmer) and is reported as the ratio between the average signal of the treated wells compared to the average value of the wells of untreated control cells. The cells were processed following the instructions provided with the kit.
Moreover, the oligonucleotides having SEQ ID NO 1-23 were administered in lines of fibroblastoid-type cells (NIH-3T3 and Phoenix) and the results are shown in Table 1 (last two columns). […]

A further series relates to WiT49. Briefly: Cellular proliferation assay (ATP-Lite), WiT49 cells. The format is cell-based, human. Conditions: Table 6. Here is the method: For the purpose of assessing the gene modulation ability of the oligonucleotides of the present invention, the effect of their administration on cell viability was determined. For this purpose 5×10^3 cells per well were seeded into 96-well cell culture plates (experiments conducted in triplicate) with 100 μl of OPTI-MEM (GIBCO BRL) medium containing 4% FBS and 2 mM of L-glutammine. The PNA oligonucleotides were administered at different concentrations (1 μM-2.5 μM-5 μM-10 μM) in order to observe a dose-effect relationship. The viability of the treated cells was determined at 48, 72, 96 and 168 hours after treatment. Cell viability was assessed by means of an ATP-Lite assay (Luminescence ATP Detection Assay System, PerkinElmer) and is reported as the ratio between the average signal of the treated wells compared to the average value of the wells of untreated control cells. The cells were processed following the instructions provided with the kit. The assays were performed on the same cell lines used to determine the levels of the MYCN gene messenger and listed in the paragraph: Treatments with Oligonucleotides-QT-PCR. The PNAs having SEQ ID NO: 1-12 were also tested on different cell lines which overexpress MYCN (Kelly, SKNBE2c, RH30, […] 1 and H69). The results are shown in Table 6 and confirm the selectivity and specificity of the inhibition effect of the PNAs on the product of protein translation of the MYCN gene.

For series [1], the system named is human and mouse neuroblastoma tumour cell lines (SMS-KAN, LAN 1, IMR-32, SMS-KCN, Kelly, NHO2A, SKNBE2c). It is filed as cell-based.

Take “SEQ ID NO: 12: PNA antigene oligonucleotide TGTCTGGACGCGCTGG directed against MYCN (all peptide nucleic acid (PNA))”: in the series with MYCN gene, the “mRNA inhibition (%)” value turned out to be 47% and the “Kelly % mRNA” value stood at 50%. In addition, in the series on NIH-3T3, the “NIH-3T3 prolif. (%)” value was determined as 100%. In addition, the “WiT49 % cell prol.” value in the series on WiT49 is listed as 73%.
For the substance “SEQ ID NO: 5: PNA antigene oligonucleotide GCTGGGTGGATGCGGG directed against MYCN (PNA backbone, chemistry not fully specified)”, in the series on MYCN gene, the “mRNA inhibition (%)” value was determined as 62% and the “Kelly % mRNA” value is 62%. Besides, the “mRNA Inhibition (%)(Kelly)” value with MYCN gene (Table 7, SEQ ID NO: 5 and guanine-group mutants) came out at 62%. Moreover, in the series on NIH-3T3, the “NIH-3T3 prolif. (%)” value is listed as 100%. For the same substance, the “WiT49 % cell prol.” value in the series with WiT49 is reported as 63%.
In the case of “SEQ ID NO: 2: PNA antigene oligonucleotide GGGTGGATGCGGGGGG directed against MYCN (PNA backbone, chemistry not fully specified)”, in the series on MYCN gene, the “mRNA inhibition (%)” value amounted to 75% and the “Kelly % mRNA” value came to 75%. Further, the “NIH-3T3 prolif. (%)” value with NIH-3T3 was determined as 100%. In addition, the “WiT49 % cell prol.” value with WiT49 is 54%.
“SEQ ID NO: 11: PNA antigene oligonucleotide GGGAACTGTGTTGGAG directed against MYCN (PNA backbone, chemistry not fully specified)”: in the series with MYCN gene, the “mRNA inhibition (%)” value was 48% and the “Kelly % mRNA” value amounted to 50%. The “NIH-3T3 prolif. (%)” value with NIH-3T3 is 100%. In addition, the “WiT49 % cell prol.” value in the series with WiT49 is 72%.
On to “SEQ ID NO: 6: PNA antigene oligonucleotide TGGACGCGCTGGGTGG directed against MYCN (PNA backbone, chemistry not fully specified)”, for which, in the series on MYCN gene, the “mRNA inhibition (%)” value stood at 60% and the “Kelly % mRNA” value is reported as 60%. In addition, the “NIH-3T3 prolif. (%)” value in the series with NIH-3T3 was determined as 100%. Moreover, the “WiT49 % cell prol.” value with WiT49 is 65%.
As to “SEQ ID NO: 9: PNA antigene oligonucleotide CCCTGCAGTCGGCGGG directed against MYCN (all peptide nucleic acid (PNA))”, in the series on MYCN gene, the “mRNA inhibition (%)” value is recorded as 51% and the “Kelly % mRNA” value worked out at 51%. The “NIH-3T3 prolif. (%)” value with NIH-3T3 is recorded as 100%. The “WiT49 % cell prol.” value in the series on WiT49 amounted to 68%.
As to “SEQ ID NO: 4: PNA antigene oligonucleotide GTCGGCGGGAGGTAAG directed against MYCN (PNA backbone, chemistry not fully specified)”, in the series on MYCN gene, the “mRNA inhibition (%)” value was 65% and the “Kelly % mRNA” value worked out at 65%. In addition, the “NIH-3T3 prolif. (%)” value in the series on NIH-3T3 came out at 100%. In the series on WiT49, the “WiT49 % cell prol.” value stood at 60%.
In the case of “SEQ ID NO: 8: PNA antigene oligonucleotide GTCTGGACGCGCTGGG directed against MYCN (all peptide nucleic acid (PNA))”, in the series with MYCN gene, the “mRNA inhibition (%)” value amounted to 54% and the “Kelly % mRNA” value came to 54%. Also, the “NIH-3T3 prolif. (%)” value in the series on NIH-3T3 was determined as 100%. The “WiT49 % cell prol.” value in the series on WiT49 was 62%.
Turning to “SEQ ID NO: 10: PNA antigene oligonucleotide CGGCCGCGGGCCGCCA directed against MYCN (PNA backbone, chemistry not fully specified)”, in the series with MYCN gene, the “mRNA inhibition (%)” value is 51% and the “Kelly % mRNA” value was 51%. Further, the “NIH-3T3 prolif. (%)” value with NIH-3T3 turned out to be 100%. For the same substance, in the series on WiT49, the “WiT49 % cell prol.” value turned out to be 70%.
Turning to “SEQ ID NO: 7: PNA antigene oligonucleotide CGCGCTGGGTGGATGC directed against MYCN (all peptide nucleic acid (PNA))”, in the series with MYCN gene, the “mRNA inhibition (%)” value is reported as 58% and the “Kelly % mRNA” value is given as 58%. Further, the “NIH-3T3 prolif. (%)” value in the series on NIH-3T3 is recorded as 100%. For the same substance, the “WiT49 % cell prol.” value with WiT49 is 60%.
For the substance “SEQ ID NO: 1: PNA ATGCCGGGCATGATCT against MYCN; subject of patent EP 1618195, control sequence used for comparison (all peptide nucleic acid (PNA)) [reference compound]”, in the series with MYCN gene, the “mRNA inhibition (%)” value is 42% and the “Kelly % mRNA” value came to 48%. In addition, the “NIH-3T3 prolif. (%)” value in the series with NIH-3T3 turned out to be 100%. In the series with WiT49, the “WiT49 % cell prol.” value came to 74%. In addition, the “effect in terms of inhibiting cell proliferation in combination with chemotherapeutic agents” value in series [1] is “synergic effect”.
As for “SEQ ID NO: 3: PNA antigene oligonucleotide GATGCGGGGGGCTCCT directed against MYCN (PNA backbone, chemistry not fully specified)”, in the series with MYCN gene, the “mRNA inhibition (%)” value was found to be 68% and the “Kelly % mRNA” value turned out to be 68%. Besides, in the series on NIH-3T3, the “NIH-3T3 prolif. (%)” value came to 100%. Further, in the series on WiT49, the “WiT49 % cell prol.” value was found to be 57%.
